Literature values in patent publication US20050282937A1, “Electrochemical compatibilizer and hydrophobic wetting agent for fiber reinforced vinyl esters and related thermosets” (priority 2004, published 2005).
Values after ≈ are worked out from the molar mass of the structure shown. Where two headings read alike, the source gives them in different places.

Columns and labels:
P. anaerobius = conditions: Fresh isolate from human plaque, Colgate-Palmolive data
W. recta = conditions: Fresh isolate from human plaque, Colgate-Palmolive data, strain not given
Listeria monocytogenes = conditions: Bacteria associated with polymeric medical devices, strain ATCC15313
Bacteroides intermedius = conditions: Oral Bacteria
Bacteroides gingivalis = conditions: Oral Bacteria, laboratory strain 381
Laboratory rats = conditions: ingestion
Streptococcus mitor = conditions: Oral Bacteria
[1] = system: Actinomyces odontolyticus
[2] = system: Peptococcus asacchrolyticus; conditions: Oral Bacteria, laboratory strain NCTC
Streptococcus mutans [3] = conditions: dental composite, 1.0 wt % concentration, twenty four-hour period
[4] = system: Staphlococcus saprohyticus; conditions: Bacteria associated with polymeric medical devices, strain NCTC7292
Pseudomonas aeruginosa = conditions: Bacteria associated with polymeric medical devices
Streptococcus mutans [5] = conditions: Oral Bacteria, laboratory strain 6715
Porphyromonas gingivalis = conditions: Oral Bacteria, laboratory strain OMZ309
Escherichia coli [6] = conditions: Bacteria associated with polymeric medical devices
Steptococcus sobrinus = conditions: Oral Bacteria, laboratory strain OMZ176
Candida albicans = conditions: Yeast
[7] = system: Actinomyces actinomycetemcomitans; conditions: Fresh isolate from human plaque, Colgate-Palmolive data
[8] = system: Staphylococcus epidermidis; conditions: catheters of ethylvinyl acetate and polypropylene, up to 2.0 wt %, rabbits
[9] = catheters of ethylvinyl acetate and polypropylene, up to 2.0 wt %
S. milleri = conditions: Fresh isolate from human plaque, Colgate-Palmolive data
Actinomyces naeslundi = conditions: Oral Bacteria
Steptococcus sanguis = conditions: Oral Bacteria, laboratory strain 34
[10] = system: Peptostreptococcus micros; conditions: Fresh isolate from human plaque, Colgate-Palmolive data, strain 1422
Salmonella enteritidis = conditions: Bacteria associated with polymeric medical devices, strain A
C. ochracea = conditions: Oral Bacteria, laboratory strain NCTC11654
Staphlococcus hyicus = conditions: Bacteria associated with polymeric medical devices, strain ATCC27844
Staphylococcus aureus = conditions: catheters of ethylvinyl acetate and polypropylene, up to 2.0 wt %, rabbits
P. acnes = conditions: Fresh isolate from human plaque, Colgate-Palmolive data, strain 1305
Escherichia coli [11] = conditions: catheters of ethylvinyl acetate and polypropylene, up to 2.0 wt %, rabbits
Staphlococcus hominus = conditions: Bacteria associated with polymeric medical devices, strain ATCC27844
[12] = system: Actinobacillus actinomycesemcomitans; conditions: Oral Bacteria, laboratory strain Y4
[13] = system: Staphlococcus epidermidis; conditions: Bacteria associated with polymeric medical devices, strain ATCC12228
[14] = system: Corynebacterium (Propionibacterium) acnes; conditions: Bacteria associated with polymeric medical devices, strain ATCC6919
Staphlococcus aureus = conditions: Bacteria associated with polymeric medical devices
Capnocytophaga spp = conditions: Fresh isolate from human plaque, Colgate-Palmolive data
Lactobacilli = conditions: Oral Bacteria, strain not given
S. mitior = conditions: Fresh isolate from human plaque, Colgate-Palmolive data
Actinomyces israeli = conditions: Oral Bacteria, laboratory strain NCTC8047
[15] = over a 24-hour period, thermoset dental compound containing 1.0 wt % additive

For Oc1cc(Cl)ccc1Oc1ccc(Cl)cc1Cl [Triclosan], the “Minimum inhibitory Triclosan concentration” value (P. anaerobius; strain 580) is listed as 0.6 µg/mL, the “Minimum inhibitory Triclosan concentration” value (P. anaerobius; strain 1198) is listed as 2.3 µg/mL and the “Minimum inhibitory Triclosan concentration” value (W. recta) is listed as 0.8 µg/mL. For the same molecule, the “Minimum inhibitory Triclosan concentration” value (Listeria monocytogenes) was 1.0 µg/mL, the “Minimum inhibitory Triclosan concentration” value (Bacteroides intermedius; laboratory strain 581) was 2.5 µg/mL and the “Minimum inhibitory Triclosan concentration” value (Bacteroides intermedius; laboratory strain NCTC9336) was 0.4 µg/mL. For the same molecule, the “Minimum inhibitory Triclosan concentration” value (Bacteroides gingivalis) was 2.5 µg/mL, the “Minimum inhibitory Triclosan concentration” value (Veillonella parvula; Fresh isolate from human plaque, Colgate-Palmolive data, strain 1167) was 6.2 µg/mL and the “Minimum inhibitory Triclosan concentration” value (Veillonella parvula; Fresh isolate from human plaque, Colgate-Palmolive data, strain 1459) was 2.3 µg/mL. The “Minimum inhibitory Triclosan concentration” value (Veillonella parvula; Oral Bacteria, laboratory strain NCTC) was 5.4 µg/mL, the “amount ingested without ill effect” value (Laboratory rats) was “greater than 5000 mg/Kg” and the “Minimum inhibitory Triclosan concentration” value (Streptococcus mitor; laboratory strain NCTC7864) was 0.8 µg/mL. The “Minimum inhibitory Triclosan concentration” value (Streptococcus mitor; laboratory strain NCTC10712) was 1.1 µg/mL, the “Minimum inhibitory Triclosan concentration” value ([1]; Fresh isolate from human plaque, Colgate-Palmolive data, strain 1041) was 0.8 µg/mL and the “Minimum inhibitory Triclosan concentration” value ([1]; Fresh isolate from human plaque, Colgate-Palmolive data, strain 1431) was 0.8 µg/mL. For the same molecule, the “Minimum inhibitory Triclosan concentration” value ([1]; Oral Bacteria, laboratory strain NCTC9935) was 0.8 µg/mL, the “Minimum inhibitory Triclosan concentration” value [2] was less than 0.6 µg/mL and the “Streptococcus mutans formation and adhesion” value (Streptococcus mutans [3]) was “reduced Streptococcus mutans formation and adhesion”. For the same molecule, the “Minimum inhibitory Triclosan concentration” value [4] was 0.1 µg/mL, the “Minimum inhibitory Triclosan concentration” value (Actinomyces viscosus; Fresh isolate from human plaque, Colgate-Palmolive data, strain 1218) was 0.8 µg/mL and the “Minimum inhibitory Triclosan concentration” value (Actinomyces viscosus; Oral Bacteria, laboratory strain NCTC10951) was 0.8 µg/mL. For the same molecule, the “Minimum inhibitory Triclosan concentration” value (Actinomyces viscosus; Oral Bacteria, laboratory strain T14V) was 5.0 µg/mL, the “Minimum inhibitory Triclosan concentration” value (Pseudomonas aeruginosa; strain ATCC12055) was greater than 1000 µg/mL and the “Minimum inhibitory Triclosan concentration” value (Pseudomonas aeruginosa; strain NCTC8060) was greater than 1000 µg/mL. The “Minimum inhibitory Triclosan concentration” value (Streptococcus mutans [5]) was 5.0 µg/mL, the “Minimum inhibitory Triclosan concentration” value (Porphyromonas gingivalis) was 2.0 µg/mL and the “Minimum inhibitory Triclosan concentration” value (Escherichia coli [6]; strain ATCC9661) was 0.3 µg/mL. For the same molecule, the “Minimum inhibitory Triclosan concentration” value (Escherichia coli [6]; strain ATCC43888) was 0.1 µg/mL, the “Minimum inhibitory Triclosan concentration” value (Escherichia coli [6]; strain NCTC8196) was 0.02 µg/mL and the “Minimum inhibitory Triclosan concentration” value (Escherichia coli [6]; strain NCTC11186) was 0.5 µg/mL. For the same molecule, the “Minimum inhibitory Triclosan concentration” value (Steptococcus sobrinus) was 11.0 µg/mL, the “Minimum inhibitory Triclosan concentration” value (Candida albicans; strain A) was 10.0 µg/mL and the “Minimum inhibitory Triclosan concentration” value (Candida albicans; strain ATCC10259) was 3.0 µg/mL. For the same molecule, the “Minimum inhibitory Triclosan concentration” value ([7]; strain 1426) was less than 0.3 µg/mL, the “Minimum inhibitory Triclosan concentration” value ([7]; strain 1483) was less than 0.3 µg/mL and the “effectiveness against Staphylococcus epidermidis” value [8] was “effectiveness”. The leaching [9] was “high leaching”, the “Minimum inhibitory Triclosan concentration” value (S. milleri; strain 1339) was 2.3 µg/mL and the “Minimum inhibitory Triclosan concentration” value (S. milleri; strain 1391) was 2.3 µg/mL. For the same molecule, the “Minimum inhibitory Triclosan concentration” value (Actinomyces naeslundi; laboratory strain 12104) was 1.0 µg/mL, the “Minimum inhibitory Triclosan concentration” value (Actinomyces naeslundi; laboratory strain A) was 1.0 µg/mL and the “Minimum inhibitory Triclosan concentration” value (Fusobacterium nucleatum; Fresh isolate from human plaque, Colgate-Palmolive data, strain 1446) was 0.8 µg/mL. For the same molecule, the “Minimum inhibitory Triclosan concentration” value (Fusobacterium nucleatum; Oral Bacteria, laboratory strain NCTC10562) was 1.2 µg/mL, the “Minimum inhibitory Triclosan concentration” value (Steptococcus sanguis) was 2.0 µg/mL and the “Minimum inhibitory Triclosan concentration” value [10] was 3.1 µg/mL. The “Minimum inhibitory Triclosan concentration” value (Salmonella enteritidis) was 0.1 µg/mL, the “Minimum inhibitory Triclosan concentration” value (C. ochracea) was less than 0.4 µg/mL and the “Minimum inhibitory Triclosan concentration” value (Staphlococcus hyicus) was 0.03 µg/mL. The “solubility (sparingly soluble)” value (at 20 C°) was 0.001 grams per liter, the Triclosan water solubility (at 37 C. °) was “Triclosan water solubility approximately 30 ug/ml at 37 C. °” and the water solubility (at 50 C°) was 40 µg/mL (≈ 138 µM). For the same molecule, the “effectiveness against Staphylococcus aureus” value (Staphylococcus aureus) was “effectiveness”, the “Minimum inhibitory Triclosan concentration” value (P. acnes) was 2.3 µg/mL and the “effectiveness against Escherichia coli” value (Escherichia coli [11]) was “effectiveness”. The “Minimum inhibitory Triclosan concentration” value (Staphlococcus hominus) was 1.0 µg/mL, the “Minimum inhibitory Triclosan concentration” value [12] was 5.0 µg/mL and the “Minimum inhibitory Triclosan concentration” value [13] was less than 0.125 µg/mL. For the same molecule, the “Minimum inhibitory Triclosan concentration” value [14] was 3.0 µg/mL, the “Minimum inhibitory Triclosan concentration” value (Staphlococcus aureus; strain ATCC9144) was 0.05 µg/mL and the “Minimum inhibitory Triclosan concentration” value (Staphlococcus aureus; strain ATCC29213) was less than 0.125 µg/mL. The “Minimum inhibitory Triclosan concentration” value (Staphlococcus aureus; strain NCTC11150) was 0.02 µg/mL, the “Minimum inhibitory Triclosan concentration” value (Staphlococcus aureus; strain NCTC12232) was 0.01 µg/mL and the “Minimum inhibitory Triclosan concentration” value (Capnocytophaga spp; strain 287) was 0.8 µg/mL. The “Minimum inhibitory Triclosan concentration” value (Capnocytophaga spp; strain 290) was 2.3 µg/mL, the “Minimum inhibitory Triclosan concentration” value (Capnocytophaga spp; strain 310) was 0.8 µg/mL and the “Minimum inhibitory Triclosan concentration” value (Lactobacilli) was 33.0 µg/mL. The “Minimum inhibitory Triclosan concentration” value (S. mitior; strain 1384) was 2.3 µg/mL, the “Minimum inhibitory Triclosan concentration” value (S. mitior; strain 1387) was 2.3 µg/mL and the “Minimum inhibitory Triclosan concentration” value (Actinomyces israeli) was 1.0 µg/mL. The “Triclosan release in water” value [15] was 0.02 ppm.
